Measurements as given in patent EP0911328B1, “SUBSTITUTED AMINOCYCLOALKYLPYRROLIDINE DERIVATIVES” (DAIICHI PHARMACEUTICAL CO., LTD., priority 1995, dated 1997).
Values after ≈ are worked out from the molar mass of the structure shown. Read-outs that look alike come from different tables or passages of the source.

Experiments:
Assay in all cases: Antibacterial activity (MIC), standard method of Japan Society of Chemotherapy
Format in all cases: cell-based
S. aureus, 209P = conditions: Staphylococcus aureus, strain S. aureus, read-out: minimum inhibitory concentration (MIC)
Procedure: (§1) Examples of the present invention are given below by way of illustration and not by way of limitation. In this connection, antibacterial activity of each compound of interest was measured in accordance with the standard method designated by Japan Society of Chemotherapy. The results are shown in Tables 1 to 3 as minimum inhibitory concentration (MIC, µg/ml).

Pr. mirabilis, IFO-3849 = conditions: Proteus mirabilis, IFO3849, strain Pr. mirabilis, read-out: minimum inhibitory concentration (MIC)
Procedure: as §1

[1] = test system: Ps. maltophilia, IID-1275; conditions: Stenotrophomonas maltophilia, IID1275, strain Ps. maltophilia, read-out: minimum inhibitory concentration (MIC)
Procedure: as §1

Ps. aeruginosa, 32121 = conditions: Pseudomonas aeruginosa, strain Ps. aeruginosa, read-out: minimum inhibitory concentration (MIC)
Procedure: as §1

[2] = test system: Str. faecalis, ATCC-19433; conditions: Enterococcus faecalis, ATCC19433, strain Str. faecalis, read-out: minimum inhibitory concentration (MIC)
Procedure: as §1

S. flexneli, 2A 5503 = conditions: strain S. flexneli, read-out: minimum inhibitory concentration (MIC)
Procedure: as §1

E. coli, NIHJ = conditions: Escherichia coli, read-out: minimum inhibitory concentration (MIC)
Procedure: as §1

Pr. vulgaris, 08601 = test system: Pr. vulgaris, 08601
Procedure: as §1

S. epidermidis, 56500 = test system: S. epidermidis, 56500
Procedure: as §1

Ps. aeruginosa, 32104 = conditions: Pseudomonas aeruginosa, strain Ps. aeruginosa, read-out: minimum inhibitory concentration (MIC)
Procedure: as §1

Str. pyogenes, G-36 = conditions: Streptococcus pyogenes
Procedure: as §1

Ser. marcescens, 10100 = conditions: Serratia marcescens, strain Ser. marcescens, read-out: minimum inhibitory concentration (MIC)
Procedure: as §1

S. aureus, 870307 = conditions: Staphylococcus aureus, strain S. aureus, read-out: minimum inhibitory concentration (MIC)
Procedure: as §1

[3] = Staphylococcus epidermidis, 56500, read-out: minimum inhibitory concentration (MIC)
[4] = G36, strain Str. pyogenes, G-36, read-out: minimum inhibitory concentration (MIC)
[5] = Proteus vulgaris, strain Pr. vulgaris, 08601, read-out: minimum inhibitory concentration (MIC)
[6] = Staphylococcus epidermidis, strain S. epidermidis, 56500, read-out: minimum inhibitory concentration (MIC)

## COc1c(N2C[C@@H](F)[C@@H](C3(N)CC3)C2)c(F)cc2c(=O)c(C(=O)O)cn([C@@H]3C[C@@H]3F)c12 [compound 12]
S. aureus, 209P
  MIC: ≤ 0.003 µg/mL
Pr. mirabilis, IFO-3849
  MIC: 0.05 µg/mL (≈ 0.114 µM)
[1]
  MIC: 0.2 µg/mL (≈ 0.457 µM)
Ps. aeruginosa, 32121
  MIC: 0.1 µg/mL (≈ 0.229 µM)
[2]
  MIC: 0.025 µg/mL (≈ 0.0572 µM)
S. flexneli, 2A 5503
  MIC: 0.013 µg/mL (≈ 0.0297 µM)
E. coli, NIHJ; strain E. coli, NIHJ
  MIC: ≤ 0.003 µg/mL
Pr. vulgaris, 08601; Proteus vulgaris, 08601, read-out: minimum inhibitory concentration (MIC)
  MIC: 0.013 µg/mL (≈ 0.0297 µM)
S. epidermidis, 56500; [3]
  MIC: 0.013 µg/mL (≈ 0.0297 µM)
Ps. aeruginosa, 32104
  MIC: 0.39 µg/mL (≈ 0.892 µM)
Str. pyogenes, G-36; [4]
  MIC: 0.006 µg/mL (≈ 0.0137 µM)
Ser. marcescens, 10100
  MIC: 0.1 µg/mL (≈ 0.229 µM)
S. aureus, 870307
  MIC: 0.025 µg/mL (≈ 0.0572 µM)

## C[C@H]1COc2c(N3C[C@H](F)[C@@H](C4(N)CC4)C3)c(F)cc3c(=O)c(C(=O)O)cn1c23 [compound 6]
S. aureus, 209P
  MIC: 0.006 µg/mL (≈ 0.0148 µM)
Pr. mirabilis, IFO-3849
  MIC: 0.2 µg/mL (≈ 0.493 µM)
[1]
  MIC: 0.39 µg/mL (≈ 0.962 µM)
Ps. aeruginosa, 32121
  MIC: 0.2 µg/mL (≈ 0.493 µM)
[2]
  MIC: 0.1 µg/mL (≈ 0.247 µM)
S. flexneli, 2A 5503
  MIC: 0.025 µg/mL (≈ 0.0617 µM)
E. coli, NIHJ; strain E. coli, NIHJ
  MIC: 0.013 µg/mL (≈ 0.0321 µM)
Pr. vulgaris, 08601; [5]
  MIC: 0.05 µg/mL (≈ 0.123 µM)
S. epidermidis, 56500; [3]
  MIC: 0.025 µg/mL (≈ 0.0617 µM)
Ps. aeruginosa, 32104
  MIC: 0.78 µg/mL (≈ 1.92 µM)
Str. pyogenes, G-36; G36, read-out: minimum inhibitory concentration (MIC)
  MIC: 0.025 µg/mL (≈ 0.0617 µM)
Ser. marcescens, 10100
  MIC: 0.1 µg/mL (≈ 0.247 µM)
S. aureus, 870307
  MIC: 0.39 µg/mL (≈ 0.962 µM)

## Cc1c(N2C[C@H](C3(N)CC3)C(F)(F)C2)c(F)c(N)c2c(=O)c(C(=O)O)cn([C@@H]3C[C@@H]3F)c12 [compound 7]
S. aureus, 209P
  MIC: ≤ 0.003 µg/mL
Pr. mirabilis, IFO-3849
  MIC: 0.025 µg/mL (≈ 0.055 µM)
[1]
  MIC: 0.05 µg/mL (≈ 0.11 µM)
Ps. aeruginosa, 32121
  MIC: 0.05 µg/mL (≈ 0.11 µM)
[2]
  MIC: 0.013 µg/mL (≈ 0.0286 µM)
S. flexneli, 2A 5503
  MIC: ≤ 0.003 µg/mL
E. coli, NIHJ; strain E. coli, NIHJ
  MIC: ≤ 0.003 µg/mL
Pr. vulgaris, 08601; [5]
  MIC: 0.05 µg/mL (≈ 0.11 µM)
S. epidermidis, 56500; [6]
  MIC: ≤ 0.003 µg/mL
Ps. aeruginosa, 32104
  MIC: 0.1 µg/mL (≈ 0.22 µM)
Str. pyogenes, G-36; [4]
  MIC: ≤ 0.003 µg/mL
Ser. marcescens, 10100
  MIC: 0.05 µg/mL (≈ 0.11 µM)
S. aureus, 870307
  MIC: 0.013 µg/mL (≈ 0.0286 µM)

## Cc1c(N2C[C@H](F)[C@@H](C3(N)CC3)C2)c(F)c(N)c2c(=O)c(C(=O)O)cn([C@@H]3C[C@@H]3F)c12 [compound 5]
S. aureus, 209P
  MIC: ≤ 0.003 µg/mL
Pr. mirabilis, IFO-3849
  MIC: 0.025 µg/mL (≈ 0.0573 µM)
[1]
  MIC: 0.05 µg/mL (≈ 0.115 µM)
Ps. aeruginosa, 32121
  MIC: 0.05 µg/mL (≈ 0.115 µM)
[2]
  MIC: 0.013 µg/mL (≈ 0.0298 µM)
S. flexneli, 2A 5503
  MIC: ≤ 0.003 µg/mL
E. coli, NIHJ; strain E. coli, NIHJ
  MIC: ≤ 0.003 µg/mL
Pr. vulgaris, 08601; [5]
  MIC: 0.013 µg/mL (≈ 0.0298 µM)
Ps. aeruginosa, 32104
  MIC: 0.1 µg/mL (≈ 0.229 µM)
Str. pyogenes, G-36; [4]
  MIC: ≤ 0.003 µg/mL
Ser. marcescens, 10100
  MIC: 0.05 µg/mL (≈ 0.115 µM)
S. aureus, 870307
  MIC: 0.006 µg/mL (≈ 0.0137 µM)

## CO[C@H]1CN(c2c(F)c(N)c3c(=O)c(C(=O)O)cn([C@@H]4C[C@@H]4F)c3c2C)C[C@@H]1C1(N)CC1 [compound 4]
S. aureus, 209P
  MIC: ≤ 0.003 µg/mL
Pr. mirabilis, IFO-3849
  MIC: 0.2 µg/mL (≈ 0.446 µM)
[1]
  MIC: 0.2 µg/mL (≈ 0.446 µM)
Ps. aeruginosa, 32121
  MIC: 0.39 µg/mL (≈ 0.87 µM)
[2]
  MIC: 0.1 µg/mL (≈ 0.223 µM)
S. flexneli, 2A 5503
  MIC: 0.013 µg/mL (≈ 0.029 µM)
E. coli, NIHJ
  MIC: 0.013 µg/mL (≈ 0.029 µM)
Pr. vulgaris, 08601; [5]
  MIC: 0.1 µg/mL (≈ 0.223 µM)
S. epidermidis, 56500; [3]
  MIC: 0.013 µg/mL (≈ 0.029 µM)
Ps. aeruginosa, 32104
  MIC: 0.78 µg/mL (≈ 1.74 µM)
Str. pyogenes, G-36; [4]
  MIC: 0.025 µg/mL (≈ 0.0557 µM)
Ser. marcescens, 10100
  MIC: 0.2 µg/mL (≈ 0.446 µM)
S. aureus, 870307
  MIC: 0.1 µg/mL (≈ 0.223 µM)

## C[C@H]1COc2c(N3C[C@H](C4(N)CC4)C(F)(F)C3)c(F)cc3c(=O)c(C(=O)O)cn1c23 [compound 8]
S. aureus, 209P
  MIC: 0.025 µg/mL (≈ 0.059 µM)
Pr. mirabilis, IFO-3849
  MIC: 0.78 µg/mL (≈ 1.84 µM)
[1]
  MIC: 0.39 µg/mL (≈ 0.921 µM)
Ps. aeruginosa, 32121
  MIC: 0.39 µg/mL (≈ 0.921 µM)
[2]
  MIC: 0.2 µg/mL (≈ 0.472 µM)
S. flexneli, 2A 5503
  MIC: 0.05 µg/mL (≈ 0.118 µM)
E. coli, NIHJ; strain E. coli, NIHJ
  MIC: 0.025 µg/mL (≈ 0.059 µM)
Pr. vulgaris, 08601; [5]
  MIC: 0.1 µg/mL (≈ 0.236 µM)
S. epidermidis, 56500; [6]
  MIC: 0.05 µg/mL (≈ 0.118 µM)
Ps. aeruginosa, 32104
  MIC: 1.56 µg/mL (≈ 3.68 µM)
Str. pyogenes, G-36; [4]
  MIC: 0.1 µg/mL (≈ 0.236 µM)
Ser. marcescens, 10100
  MIC: 0.39 µg/mL (≈ 0.921 µM)
S. aureus, 870307
  MIC: 0.78 µg/mL (≈ 1.84 µM)
